Laboratory results: patent publication US20260000708A1, “Copper Hydrogel Beads as a Diet Supplement” (Texas Tech University System, priority 2021, published 2026)

System: Salmonella
Experiment: Time-release formulation compared to copper sulfate alone against Salmonella cells in vitro
Type: cell-based
Settings: after application (FIG. 3)

## O=S(=O)([O-])[O-].[Cu+2] [copper sulfate]
  Duration of effectiveness against Salmonella: only effective for a short time
